Reference: PMC10191434 (2023)

Test system: modified procaine-binding aptamer (new sequence) (DNA, aptamer) AGACAAGGAAAATCCTTCAACGAAGTGGGTCG
Assay: square-wave voltammetry, EAB sensor titration
Conditions: undiluted bovine CSF, 37 °C, immobilised aptamer; for binding: highest concentration not given

CCN(CC)CCO
binding: no

Nc1ccc(C(=O)O)cc1
binding: no

CCN(CC)CCOC(=O)c1ccc(N)cc1
Kd (Langmuir-Hill fit, ± is 95% confidence): 960 ± 30 µM
